Laboratory results reported in patent publication US20240116946A1 (Gilead Sciences, Inc., priority 2022, published 2024).
Like-named read-outs stand apart in the source and are kept apart here.

Legend:
[1] = molecular target: recombinant SARS-CoV-2 Main protease (Mpro) (Severe acute respiratory syndrome coronavirus 2 (2019-nCoV) (SARS-CoV-2), UniProt P0DTD1); experiment: Cov Mpro Biochemical IC50 Assay; details: read-out: MPro IC50
SARS-CoV-2-NLuc = experiment: microbe, parasite or virus in culture; format: cell-based, SARS Coronavirus 2
[2] = recombinant SARS-CoV-2 Mpro 7.5 nM, fluorogenic peptide substrate 40 μM
[3] = Severe acute respiratory syndrome coronavirus, 48 h, read-out: MPro EC50
[4] = recombinant SARS-CoV-2 Mpro, fluorogenic peptide substrate
[5] = Severe acute respiratory syndrome coronavirus, 48 h; read-out: MPro EC50

Compound | IC50 [1, 2] | EC50 (SARS-CoV-2-NLuc; [3]) | EC50 (SARS-CoV-2-NLuc; read-out: MPro EC50) | IC50 [1, 4] | EC50 (SARS-CoV-2-NLuc; [5])
Cc1cnc(Cl)c(-c2cc3[nH]c(=O)n(-c4cncc5cnn(C)c45)c(=O)c3s2)c1 [Example 669] | 336 nM | > 1000 nM | – | – | –
COc1cc(-c2cc3c(s2)c(=O)n(-c2cncc4ccsc24)c(=O)n3CC#N)c(Cl)cc1F [Example 653] | 2.58 nM | 4.45 nM | – | – | –
COc1ccc(C#N)c(-c2cc3[nH]c(=O)n(-c4cncc5cnccc45)c(=O)c3s2)c1 [Example 583] | 20.9 nM | 227 nM | – | – | –
COc1cc(-c2cc3c(s2)c(=O)n(-c2cncc4cnn(C5CC5)c24)c(=O)n3CCC#N)c(Cl)cc1F [Example 998] | 8.93 nM | 6.42 nM | – | – | –
N#CCCn1c(=O)n(-c2cncc(Cl)c2)c(=O)c2sc(-c3ccc(F)cc3Cl)cc21 [Example 787] | 13 nM | 33.2 nM | – | – | –
COc1ccc(Cl)c(-c2cc3[nH]c(=O)n(-c4cncc5cccnc45)c(=O)c3s2)c1 (single isomer, unassigned) [Example 467, 6-(2-chloro-5-methoxyphenyl)-3-(1,6-naphthyridin-8-yl)thieno[3,2-d]pyrimidine-2,4(1H,3H)-dione] | 11.4 nM | – | 38.1 nM | – | –
COc1cnc(Cl)c(-c2cc3c(s2)c(=O)n(-c2cncc4nn(C)c(C)c24)c(=O)n3CCC#N)c1 [Example 1086] | 24.6 nM | 413 nM | – | – | –
Cn1cc2ccc(-c3cc4[nH]c(=O)n(-c5cncc6ccccc56)c(=O)c4s3)cc2n1 [Example 10] | – | 20000 nM | – | 13700 nM | –
N#Cc1cnccc1-c1cc2[nH]c(=O)n(-c3cncc4ccccc34)c(=O)c2s1 [Example 531] | 50 nM | 518 nM | – | – | –
COc1ccc(Cl)c(-c2ccc3c(=O)n(-c4cncc5ccc(N6CC(OC)C6)cc45)c(=O)[nH]c3c2)c1 [Example 408] | 42.7 nM | 108 nM | – | – | –
NC(=O)c1ccccc1-c1cc2[nH]c(=O)n(-c3cncc4ccccc34)c(=O)c2s1 [Example 3] | – | > 50000 nM | – | 312 nM | –
O=c1[nH]c2cc(-c3c(Cl)cccc3-c3cnn4c3COCC4)sc2c(=O)n1-c1cncc2ccccc12 [Example 523] | 4.05 nM | 5.79 nM | – | – | –
COc1cc(-c2cc3c(s2)c(=O)n(-c2cncc(C4CC4)c2)c(=O)n3CCC#N)c(Cl)cc1F [Example 924] | 2.52 nM | 5.31 nM | – | – | –
Cc1c(C2CC2)cncc1-n1c(=O)[nH]c2cc(-c3ccccc3Cl)sc2c1=O [Example 377] | – | 6230 nM | – | > 50000 nM | –
COc1ccc(-n2cc(-c3cccc(Cl)c3-c3ccc4c(=O)n(-c5cncc6ccccc56)c(=O)[nH]c4c3)c(C)n2)cc1 [Example 283] | – | 94.4 nM | – | 240 nM | –
N#Cc1cccc(Cl)c1-c1ccc2c(=O)n(-c3cncc4ccccc34)c(=O)[nH]c2c1 [Example 98] | – | 198 nM | – | 213 nM | –
O=c1[nH]cc(-c2cc3[nH]c(=O)n(-c4cncc5ccccc45)c(=O)c3s2)c(=O)[nH]1 [Example 20] | – | > 50000 nM | – | 8620 nM | –
COc1cc(-c2cc3c(s2)c(=O)n(-c2cncc4ccccc24)c(=O)n3CCC#N)c(C#N)cc1F (single isomer, unassigned) [Example 968, 2-(1-(2-cyanoethyl)-3-(isoquinolin-4-yl)-2,4-dioxo-1,2,3,4-tetrahydrothieno[3,2-d]pyrimidin-6-yl)-5-fluoro-4-methoxybenzonitrile] | 89.1 nM | – | 96 nM | – | –
COc1cc(-c2cc3[nH]c(=O)n(-c4cncc5ccccc45)c(=O)c3cc2F)c(C#N)cc1F (single isomer, unassigned) [Example 511, 5-fluoro-2-[6-fluoro-3-(4-isoquinolyl)-2,4-dioxo-1H-quinazolin-7-yl]-4-methoxy-benzonitrile] | 913 nM | – | 604 nM | – | –

Compound | IC50 [1, 2] | EC50 (SARS-CoV-2-NLuc; [3]) | EC50 (SARS-CoV-2-NLuc; read-out: MPro EC50) | IC50 [1, 4] | EC50 (SARS-CoV-2-NLuc; [5])
COc1ccc(Cl)c(-c2ccc3c(=O)n(-c4cncc5c4CCCO5)c(=O)[nH]c3c2)c1 [Example 597] | 160 nM | 205 nM | – | – | –
COc1cc(-c2cc3c(s2)c(=O)n(-c2cncc4cnn(C)c24)c(=O)n3CCC#N)c(C#N)cn1 [Example 776] | 233 nM | 578 nM | – | – | –
O=c1[nH]c2cc(-c3c(Cl)cccc3-c3cc4n(n3)CCC4)ccc2c(=O)n1-c1cncc2ccccc12 [Example 246] | – | 18.4 nM | – | 21 nM | –
CN(C)c1cncc(-n2c(=O)[nH]c3cc(-c4ccccc4Cl)sc3c2=O)c1 [Example 380] | – | 770 nM | – | 5950 nM | –
O=C1NCc2ccc(-c3cccc(Cl)c3-c3ccc4c(=O)n(-c5cncc6ccccc56)c(=O)[nH]c4c3)cc21 [Example 236] | – | 228 nM | – | 86.8 nM | –
Cn1ncc2cncc(-n3c(=O)c4sc(-c5cc(F)c(F)cc5C#N)cc4n(CCC#N)c3=O)c21 [Example 794] | 31.5 nM | > 1000 nM | – | – | –
CCn1cc2cncc(-n3c(=O)c4sc(-c5cc(OC)c(F)cc5Cl)cc4n(CCC#N)c3=O)c2n1 [Example 913] | 4.31 nM | 4.53 nM | – | – | –
COc1ccc(Cl)c(-c2cc3[nH]c(=O)n(-c4cncc5ccc(N6CCO[C@H](C(F)(F)F)C6)cc45)c(=O)c3s2)c1 [Example 415] | 11.7 nM | – | – | – | 26.6 nM
COc1cc(-c2cc3c(s2)c(=O)n(-c2cncc4cnn(C5CC5)c24)c(=O)n3CC#N)c(Cl)cc1F [Example 691] | 3.07 nM | 2.91 nM | – | – | –
Cc1c(Cl)cncc1-n1c(=O)c2sc(-c3ccc(F)cc3C#N)cc2n(CCC#N)c1=O [Example 808] | 74.5 nM | – | – | – | 183 nM
CC1(C)Cc2c(-c3cccc(Cl)c3-c3cc4[nH]c(=O)n(-c5cncc6ccccc56)c(=O)c4s3)cnn2C1 [Example 524] | 7.83 nM | 5.95 nM | – | – | –
Cc1nn(C2COC2)c(C)c1-c1cccc(Cl)c1-c1ccc2c(=O)n(-c3cncc4ccccc34)c(=O)[nH]c2c1 [Example 321] | – | 25.1 nM | – | 8.28 nM | –
N#Cc1cccc(-c2cccc(Cl)c2-c2ccc3c(=O)n(-c4cncc5ccccc45)c(=O)[nH]c3c2)c1 [Example 184] | – | 40 nM | – | 92.5 nM | –
O=c1[nH]c2cc(-c3c(Cl)cccc3-c3cnn4c3OCCC4)sc2c(=O)n1-c1cncc2ccccc12 [Example 528] | 7.09 nM | 7.22 nM | – | – | –
Cc1ccc(-c2cc3[nH]c(=O)n(-c4cncc5cnn(C)c45)c(=O)c3s2)c(C#N)c1 [Example 841] | 134 nM | 523 nM | – | – | –
O=c1[nH]c2cc(-c3c(Cl)cccc3Cl)ccc2c(=O)n1-c1cncc2ccccc12 [Example 95, 7-(2,6-dichlorophenyl)-3-(isoquinolin-4-yl)quinazoline-2,4(1H,3H)-dione] | – | – | – | 1590 nM | 680 nM
Cc1cncc(-n2c(=O)[nH]c3cc(-c4ccccc4Cl)sc3c2=O)c1C [Example 132] | – | 27.4 nM | – | 9.12 nM | –
O=c1[nH]c2cc(-c3ccccc3Cl)sc2c(=O)n1-c1cncc2nccn12 [Example 135] | – | 288 nM | – | 51.5 nM | –
COc1cc(-c2cc3c(s2)c(=O)n(-c2cncc4nn(C)c(C)c24)c(=O)n3CCC#N)c(Cl)cc1F (single isomer, unassigned) [Example 1042, 3-(6-(2-chloro-4-fluoro-5-methoxyphenyl)-3-(2,3-dimethyl-2H-pyrazolo[3,4-c]pyridin-4-yl)-2,4-dioxo-3,4-dihydrothieno[3,2-d]pyrimidin-1(2H)-yl)propanenitrile] | > 1000 nM | – | > 1000 nM | – | –
